Results published in patent publication US20220040136A1, “TREATMENT OF VULVOVAGINAL DISORDERS” (University of Rochester, priority 2018, published 2022).

What was measured:
Type in all cases: cell-based
human vulvar fibroblasts [1] = test: In vitro LPV model: SPM pre-treatment of patient vestibular/vulvar fibroblasts before inflammatory stimulation, IL-6 and PGE2 by ELISA/EIA; conditions: pre-treated 10 hours with 5 nM SPM, vestibular and external vulvar fibroblasts
Method: (§1) FIGS. 5A, 5B, 5C, and 5D are a set of diagrams showing that PGE2 and IL-6 production is reduced by SPMs. Patient vestibular or vulvar fibroblasts were pre-treated for 10 hours with Lipoxin A4 (LxA4), Resolvin D2 (RvD2), (7R)-Maresin 1 or epi(7S)-Maresin 1 at a 5 nM concentration, then activated with IL-1β (Panel A; 10 pg/ml) or bradykinin (Panel B; 100 nM) for 48 hr. Culture media were collected and analyzed for PGE2 (Panel A) or IL-6 (Panel B) content. Patient fibroblasts were also activated first with IL-1β for 30 min then treated with 5 nM (7R)-Maresin 1 or LXA4 for 18 hours, followed by a booster dose for 6 hr. Culture media were collected and analyzed for PGE2 (Panel C) or IL-6 (Panel D) content. Mean+/−SEM of n=3, ANOVA *p<0.05 vs. activation only (no SPM).
FIGS. 23A and 23B are diagrams showing six SPMs are effective in reducing IL-6 and PGE2 production from fibroblasts when used as a pre-treatment and post-treatment. Patient vestibular or vulvar fibroblasts were pre-treated for 18 h with Resolvin D3 (RvD3), Resolvin D4 (RvD4), Resolvin D5 (RvD5), Resolvin E1 (RvE1), Protectin D1 or Protectin DX at a 5 nM concentration, pre-treated again for 30 min prior to activation, then activated with 10 pg/ml IL-1β for 48 h with a booster SPM dose at 24 h. Culture media were collected and analyzed for IL-6 (Panel A) and PGE2 (Panel B). Mean+/−SEM of n=6 (two cases run in triplicate), ANOVA *p<0.05 vs. activation only (IL-1b).
(§2) In this example, a fibroblast-based in vitro LPV model was established. Briefly, fibroblast strains were obtained from two regions (FIG. 1) of the lower genital tract of localized provoked vulvodynia (LPV) cases and pain-free controls in the manner described in Falsetta et al. Am J Obstet Gynecol 2015, vol. 213, pp. 38 e1-12 and Foster et al., Pain 2015, vol. 156, pp. 386-96.
(§3) Over 30 paired fibroblast strains obtained from LPV-afflicted cases (fulfilling Friedrich's Criteria)^25 and age/race-matched (critical variables influencing LPV),^26, 27 pain-free controls were obtained. All subjects who contributed to the library were premenopausal, denied oral corticosteroids, non-steroidal, immunomodulatory, or anti-inflammatory medication use, and reported an absence of systemic/cutaneous inflammatory conditions at the time of sample collection. Mechanical pain thresholds were determined (via a method of limits) (0.5-5 N) using a Wagner algometer. Fibroblast identity was confirmed by microscopy and fibroblast markers (vimentin, collagen); only low passage (˜4) cells are used.
(§4) Synthesized, purified and commercially available SPMs from each known SPM class (E-series Resolvins, D-series Resolvins, Maresins, Protectins and Lipoxins) at low/nanomolar concentrations (1-100 nM) were tested. […] The inventors used one of two treatment regimens proven effective in vulvar fibroblasts and other cells: 1) overnight pre-treatment, followed by another treatment 30 min prior to stimulation with proinflammatory stimuli for 48 hr with a third dose of SPMs at 24 hr post-challenge, or 2) post-treatment with SPMs after a 30 min pre-treatment with inflammatory stimuli, followed by a booster dose 18 hr later. Both treatment regimens are of interest, as SPMs are active throughout the inflammatory process.^5-7 Even SPMs administered after LPV onset are likely to prevent the worsening or spread of LPV pain.
Next, SPMs from other classes (E series Resolvins and Protectins), as well as additional SPMs from classes containing members that are effective in reducing IL-6 and PGE2 production (e.g., Maresins) were investigated in similar screen. […] SPMs that were effective in reducing more than one proinflammatory mediator in at least 2 tests can be examined for further testing using a preclinical mouse model. […] These additional effective SPMs include Resolvin D3, Resolvin D4, Resolvin D5, Resolvin E1, Protectin D1, and Protectin DX. […]

human vulvar fibroblasts [2] = test: In vitro LPV model: SPM post-treatment of already activated patient fibroblasts, IL-6 and PGE2; conditions: post-treatment: IL-1β 30 min, then 5 nM SPM 18 hours, booster dose 6 hr
Method: as §1
FIGS. 24A and 24B are diagrams showing that six SPMs are effective in reducing IL-6 and PGE2 production from fibroblasts when used as a post-treatment. Patient vestibular or vulvar fibroblasts were activated first with IL-1β for 30 min then treated with RvD3, RvD4, RvD5, RvE1, Protectin D1 or Protectin DX at a 5 nM concentration for 18 hours, followed by a booster SPM dose for 24 hr. Culture media were collected and analyzed for IL-6 (Panel A) and PGE2 (Panel B) content. Mean+/−SEM of n=6 (two cases run in triplicate), ANOVA *p<0.05 vs. activation only (IL-1b). […] The magnitude of reduction was not as great as pre-treatment, but equally significant as the reduction from pre-treatment regimens.
as §2, §3, §4

Mouse vulvar tissue = test: Mouse vulvar explants (4 mm punch biopsy), IL-1β-stimulated PGE2 production; conditions: pre-treatment 18 hours, then IL-1β 10 pg/ml 18 hours; range of doses, as low as 1 nM; FIG. 6
Method: FIG. 6 is a diagram showing that SPMs inhibit PGE2 production from mouse vulvar tissue. Mouse vulvar tissue (4 mm punch biopsies) was collected and bisected then pre-treated in culture medium with either Maresin 1 or RvD2 at indicated concentrations for 18 hours, followed by an additional 18 hours stimulation with IL-1β (10 pg/ml). Culture medium was collected and analyzed for PGE2 content. Mean+/−SEM; n=3 replicate cultures. ANOVA * p<0.05 vs. vehicle.
Although SPM structure and therapeutic efficacy is conserved across species,^5-7 inventors first confirmed that mouse vulvar tissues responded to SPM treatment in vitro by culturing mouse vulvar explants (4 mm punch biopsy). The explants were stimulated with IL-1, and then assays were carried to assess the ability of Maresin 1 or RvD2 to reduce PGE2 production under the established pre-treatment regimen.

What does the source list for `CC/C=C\C/C=C\C[C@H](O)\C=C/C=C/C=C/[C@H](O)C/C=C\CCC(=O)O` [Maresin 1, 7R,14S-docosa-4Z,8E,10E,12Z,16Z,19Z-hexaenoic acid]?
prostaglandin E2 (PGE2) production (human vulvar fibroblasts [1]; then IL-1β 10 pg/ml 48 hr, FIG. 5A): significantly reduced; interleukin-6 (IL-6) production (human vulvar fibroblasts [1]; then bradykinin 100 nM 48 hr, FIG. 5B): significantly reduced; PGE2 levels (human vulvar fibroblasts [2]; FIG. 5C): significantly reduced; IL-6 levels (human vulvar fibroblasts [2]; FIG. 5D): significantly reduced; PGE2 responses following IL-1β treatment (Mouse vulvar tissue): significantly suppressed
